Measured values reported in patent US20170334899A1, “AMINO-SUBSTITUTED ISOTHIAZOLES” (Bayer Pharma Aktiengesellschaft, priority 2014, published 2017).

Key:
[1] = test system: human cervical tumor cell line HeLa (ATCC CCL-2); experiment: SAC-Formation - Nocodazole-Induced Assay; assay type: cell-based; details: Homo sapiens, HeLa, 24 h, HeLa cells, nocodazole 0.1 μg/ml together with test compound, decrease of mitotic cells (phospho-histone H3 Ser10)
In short: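 HeLa cells, plated overnight, were treated 24 h at 37 °C with nocodazole (0.1 μg/ml final) plus test compound (0.005–20 μM, 0.5% DMSO) added at the same time. After fixation, anti-phospho-histone H3 Ser10 and Hoechst staining gave the mitotic cell fraction by imaging. Values came from four-parameter Hill fits.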

[2] = test system: human cervical tumor cell line HeLa (ATCC CCL-2); experiment: SAC-Formation - Paclitaxel-Induced Assay; assay type: cell-based; details: Homo sapiens, HeLa, 24 h, HeLa cells, paclitaxel 0.05 μM, test range 0.005 μM-20 μM, read-out: IC50 [mol/l] SAC-Formation - Paclitaxel-Induced Assay
In short: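 HeLa cells incubated overnight at 37° C, then given paclitaxel (0.05 μM final) plus test compound (0.005–20 μM, 0.5% DMSO) together for 24 h at 37° C. Fixed cells stained for phospho-histone H3 Ser10 (mitotic cells) and Hoechst 33342 (cell count); imaging-derived mitotic index fitted by four-parameter Hill equation.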

SMILES	IC50 [1] [nM]	IC50 [2] [nM]
Cc1nsc(Nc2cnc(C(F)(F)F)cn2)c1C(=O)Nc1ccc(F)c(OC[C@H]2CCCN(CC(F)(F)F)C2)c1 [Example 419, N-(4-Fluoro-3-{[(3S)-1-(2,2,2-trifluoroethyl)piperidin-3-yl]methoxy}phenyl)-3-methyl-5-{[5-(trifluoromethyl)pyrazin-2-yl]amino}-1,2-thiazole-4-carboxamide]	38	130
Cc1nsc(Nc2cnc(C(F)(F)F)cn2)c1C(=O)Nc1ccc(F)c(OCCCNC(=O)C(F)(F)F)c1 [Example 427, N-(4-Fluoro-3-{3-[(trifluoroacetyl)amino]propoxy}phenyl)-3-methyl-5-{[5-(trifluoro-methyl)pyrazin-2-yl]amino}-1,2-thiazole-4-carboxamide]	700	920
Cc1nsc(Nc2cnc(C(F)(F)F)cn2)c1C(=O)Nc1ccc(OCCCNC(=O)C(F)(F)F)nc1 [Example 428, 3-Methyl-N-(6-{3-[(trifluoroacetyl)amino]propoxy}pyridin-3-yl)-5-{[5-(trifluoro-methyl)pyrazin-2-yl]amino}-1,2-thiazole-4-carboxamide]	890	620
Cc1nsc(Nc2cnc(C(F)(F)F)cn2)c1C(=O)Nc1ccc(OCCN(C)C(=O)OC(C)(C)C)nc1 [Example 429, tert-Butyl methyl{2-[(5-{[(3-methyl-5-{[5-(trifluoromethyl)pyrazin-2-yl]amino}-1,2-thiazol-4-yl)carbonyl]amino}pyridin-2-yl)oxy]ethyl}carbannate]	16	260
Cc1nsc(Nc2cnc3ccccc3n2)c1C(=O)Nc1cccc(NC(=O)C(F)(F)F)c1 [Example 432, 3-Methyl-5-(quinoxalin-2-ylamino)-N-{3-[(trifluoroacetyl)amino]phenyl}-1,2-thiazole-4-carboxamide]	170	1200
Cc1nsc(Nc2ccc(C#N)cn2)c1C(=O)Nc1ccc(Nc2ccc(F)c(F)c2)nc1 [Example 433, 5-[(5-Cyanopyridin-2-yl)amino]-N-{6-[(3,4-difluorophenyl)amino]pyridin-3-yl}-3-methyl-1,2-thiazole-4-carboxamide]	210	1300
Cc1nsc(Nc2cnc3ccccc3n2)c1C(=O)Nc1ccc(NCCN(C)C(=O)OC(C)(C)C)nc1 [Example 434, tert-Butyl methyl(2-{[5-({[3-methyl-5-(quinoxalin-2-ylamino)-1,2-thiazol-4-yl]carbonyl}amino)pyridin-2-yl]amino}ethyl)carbamate]	970	3500

The remaining lines, values ahead:

IC50 [1] [nM]	IC50 [2] [nM]	SMILES
4.2	27	Cc1nsc(Nc2cnc(C(F)(F)F)cn2)c1C(=O)Nc1ccc(F)c(O[C@H]2CCN(CC(F)(F)F)C2)c1 [Example 416, N-(4-Fluoro-3-{[(35)-1-(2,2,2-trifluoroethyl)pyrrolidin-3-yl]oxy}phenyl)-3-methyl-5-{[5-(trifluoromethyl)pyrazin-2-yl]amino}-1,2-thiazole-4-carboxamide]
9.4	32	Cc1nsc(Nc2cnc(C(F)(F)F)cn2)c1C(=O)Nc1ccc(F)c(O[C@H]2CCN(CC(F)F)C2)c1 [Example 417, N-(3-{[(3S)-1-(2,2-Difluoroethyl)pyrrolidin-3-yl]oxy}-4-fluorophenyl)-3-methyl-5-{[5-(trifluoromethyl)pyrazin-2-yl]amino}-1,2-thiazole-4-carboxamide]
210	140	Cc1nsc(Nc2cnc(C(F)(F)F)cn2)c1C(=O)Nc1ccc(F)c(OC[C@H]2CCCN(CCC(F)(F)F)C2)c1 [Example 418, N-(4-Fluoro-3-{[(3S)-1-(3,3,3-trifluoropropyl)piperidin-3-yl]methoxy}phenyl)-3-methyl-5-{[5-(trifluoromethyl)pyrazin-2-yl]amino}-1,2-thiazole-4-carboxamide]
120	240	Cc1nsc(Nc2cnc(C(F)(F)F)cn2)c1C(=O)Nc1ccc(CCC2CCN(CCC(F)(F)F)CC2)nc1 [Example 420, 3-Methyl-5-{[5-(trifluoromethyl)pyrazin-2-yl]amino}-N-(6-{2-[1-(3,3,3-trifluoro-propyl)piperidin-4-yl]ethyl}pyridin-3-yl)-1,2-thiazole-4-carboxamide]
74	320	CCN1CC[C@H](Oc2ccc(NC(=O)c3c(C)nsc3Nc3cnc(C(F)(F)F)cn3)cn2)[C@H](F)C1 [Example 424, N-(6-{[(3R,4S)-1-Ethyl-3-fluoropiperidin-4-yl]oxy}pyridin-3-yl)-3-methyl-5-{[5-(trifluoromethyl)pyrazin-2-yl]amino}-1,2-thiazole-4-carboxamide]
720	350	Cc1nsc(Nc2cnc(C(F)(F)F)cn2)c1C(=O)Nc1ccc(OCCNC(=O)C(F)(F)F)nc1 [Example 425, 3-Methyl-N-(6-{2-[(trifluoroacetyl)amino]ethoxy}pyridin-3-yl)-5-{[5-(trifluoro-methyl)pyrazin-2-yl]amino}-1,2-thiazole-4-carboxamide]
11	45	Cc1nsc(Nc2cncc(C(F)(F)F)n2)c1C(=O)Nc1ccc(OCCN(C)C(=O)OC(C)(C)C)nc1 [Example 430, tert-Butyl methyl{2-[(5-{[(3-methyl-5-{[6-(trifluoromethyl)pyrazin-2-yl]amino}-1,2-thiazol-4-yl)carbonyl]amino}pyridin-2-yl)oxy]ethyl}carbannate]
10000	10000	Cc1nsc(Nc2cnc(C(F)(F)F)cn2)c1C(=O)Nc1ccc(OC2CCNCC2)c(F)c1 [Example 431, N-[3-Fluoro-4-(piperidin-4-yloxy)phenyl]-3-methyl-5-{[5-(trifluoromethyl)pyrazin-2-yl]amino}-1,2-thiazole-4-carboxamide]
12000	20000	CC(=O)Nc1ccc(NC(=O)c2c(C)nsc2Nc2ccc(C#N)cn2)cn1 [Example 435, N-(6-Acetamidopyridin-3-yl)-5-[(5-cyanopyridin-2-yl)amino]-3-methyl-1,2-thiazole-4-carboxamide]
